Patent publication US5302590A, “Compounds useful as dual antagonists of platelet activating factor and leukotriene D4” (Hoffmann-La Roche Inc., priority 1992, dated 1994)
Like-named read-outs stand apart in the source and are kept apart here.

Columns and labels:
[1] = system: platelet activating factor (PAF); assay: PAF Induced Bronchoconstriction Assay; type: in vivo, guinea pig; details: for ED50: Cavia porcellus, Platelet, read-out: PAF-induced bronchoconstriction ID50; for PAF-induced bronchoconstriction, percent inhibition: 10 mg/kg; for antagonist activity against bronchoconstriction induced by PAF or LTD4: administered IV, statement covers both PAF and LTD4
Protocol: (§1) The relative potency (ID50 values) of test compounds administered by the intravenous and oral route was determined by administering increasing doses of test compound. For determination of the time course of inhibition for various compounds, the time between administration of compound and challenge with LTD was varied. The time course of activity was calculated as the time when inhibition decreased to 40%.
Male animals (Hartlet Strain, 400-500 g were anesthetized with urethane (2 g/kg, i.p.). Each animals' trachea was cannulated and the guinea pigs were respirated using a Harvard small animal rodent respirator (3.0 cc stroke volume, 40 breaths per min.). Tracheal pressure was recorded from a cannula inserted in the trachea and connected to a Statham pressure transducer.
The jugular vein was cannulated for administering compounds. Spontaneous breathing was arrested with succinylcholine (1.2 mg/kg, i.v.) administered 2 minutes prior to intravenous injection of platelet activating factor PAF).
For the intravenous testing, the guinea pig is given a 1-minute pretreatment with propranolol at a dose of 0.1 mg/kg intravenously. The test compound is administered with a 1 minute pretreatment prior to intravenous challenge with PAF. The animal is then challenged with a 1 μg/kg intravenous dose of PAF and the change in tracheal pressure is measured.
For the oral testing, the procedure includes a 2-hour pretreatment period with the test compound administered through an oral gavage tube. Propranolol or succinylcholine and PAF are administered intravenously, and the change in tracheal pressure measured.
The change in tracheal pressure is determined by subtracting the steady state baseline achieved after administration of succinylcholine from the peak bronchoconstriction seen after challenge with PAF. The mean is calculated for each test compound and compared to the mean of the control animals to give the percent inhibition of bronchoconstriction. The standard error is calculated as the standard error of the mean.
(§2) The compounds listed below were evaluated for antagonist activity against bronchoconstriction induced by PAF or LTD4. Comparative data for a known LTD4 antagonist (Compound B) and a known PAF antagonist (Compound A) are also shown.
(§3) Compounds C, D and E were administered orally at a dose of 10 mg/kg.

[2] = system: leukotriene D4 (LTD4); assay: Leukotriene-induced bronchoconstriction in guinea pigs, in vivo leukotriene D4 (LTD) antagonist test; parameters: species or system guinea pig (Hartley strain); details: for ED50: Cavia porcellus, read-out: LTD4-induced bronchoconstriction ID50
Protocol: Male guinea pigs (Hartley strain Charles River) weighing 300-500 g were anesthetized with urethane (~2 g/kg) intraperitoneally and a polyethylene cannula was inserted into the jugular vein for intravenous drug administration. Tracheal pressure (cm of H2 O) was recorded from a Statham pressure transducer (P 32 AA). Propranolol was administered 5 minutes prior to challenge with LTD. Two minutes later spontaneous breathing was arrested with succinylcholine chloride (1.2 mg/kg) administered intravenously, and the animals were ventilated with a Harvard (Model #680) small animal respirator set at 40 breaths/min and 4.0 cc stroke volume. Control vehicle or test drug was administered through the cannula into the jugular vein 1 minute before the animals were challenged intravenously with a maximum constrictory dose of LTD (25 μg/kg) given intravenously. The change in tracheal pressure was averaged for control and drug-treated animals and percent inhibition was calculated. For determination of oral activity, animals were dosed with test compound or vehicle two hours prior to challenge with LTD (25 μg/kg, i.v.).
as §1, §2, §3

[3] = 1 min, iv, 1 minute pretreatment, PAF 1 μg/kg i.v.
[4] = 1 min, iv, 1 minute before LTD 25 μg/kg i.v.
[5] = po, 10 mg/kg, two hours prior to LTD 25 μg/kg i.v.

Compound | ED50 [1, 3] [mg/kg] | PAF-induced bronchoconstriction, percent inhibition ([1]; po, 2-hour pretreatment) [%] | LTD4-induced bronchoconstriction, percent inhibition ([2]; iv column, iv dose not given) [%] | antagonist activity against bronchoconstriction induced by PAF or LTD4 [1] | ED50 [2, 4] [mg/kg] | LTD4-induced bronchoconstriction, percent inhibition [2, 5] [%] | ED50 ([1]; po, 2-hour pretreatment) [mg/kg] | LTD4-induced bronchoconstriction ID50 ([2]; iv, 1 minute before LTD 25 μg/kg i.v.) | LTD4-induced bronchoconstriction ID50 ([2]; po, two hours prior to LTD 25 μg/kg i.v.) | PAF-induced bronchoconstriction ID50 ([1]; iv, 1 minute pretreatment, PAF 1 μg/kg i.v.) | PAF-induced bronchoconstriction ID50 ([1]; po, 2-hour pretreatment) | ED50 ([2]; 2 h, po, two hours prior to LTD 25 μg/kg i.v.) [mg/kg]
CCOC(=O)c1cc(CCc2cc3c(s2)-n2c(C)nnc2CN=C3c2ccccc2Cl)ccc1CC(=O)Nc1cccc(/C=C/c2nc(C3CCC3)cs2)c1 [Compound E, (E)-5-[2-[4-(2-Chlorophenyl)-9-methyl-6H-thieno-[3,2-f][1,2,4]triazolo[4,3-a][1,4]diazepin-2-yl]ethyl]-2-[2-[3-[2-(4-cyclobutyl-2-thiazolyl)ethenyl]phenylamino]-2-oxoethyl]-benzoic acid ethyl ester] | 0.02 | 14 ± 9 | 46 ± 7 |  |  |  |  |  |  |  |  | 
Cc1nnc2n1-c1sc(CCc3ccc(CC(=O)Nc4cccc(/C=C/c5nc(C6CCC6)cs5)c4)c(C(=O)O)c3)cc1C(c1ccccc1Cl)=NC2.O [Compound C, (E)-5-[2-[4-(2-chlorophenyl)-9-methyl-6H-thieno-[3,2-f][1,2,4]triazolo[4,3-a][1,4]diazepin-2-yl]ethyl]-2-[2-[3-[2-(4-cyclobutyl-2-thiazolyl)ethenyl]phenylamino]-2-oxoethyl]-benzoic acid monohydrate] | 0.02 | 37 ± 1 |  | very potent dual acting antagonists | 0.01 | 48 ± 8 |  |  |  |  |  | 
Cc1nnc2n1-c1sc(C#CCn3c(=O)c4ccccc4c4ccccc43)cc1C(c1ccccc1Cl)=NC2 [Compound A, 5-{3-[4-(2-Chlorophenyl)-9-methyl-6H-thieno[3,2f][1,2,4]triazolo[4,3-a][1,4]diazepin-2-yl]-2-propynyl}phenanthridin-6(5H)-one, reference compound] | 0.02 |  |  |  |  |  | 0.12 | Not Active | Not Active |  |  | 
C=CCNC(=O)c1cc(CCc2cc3c(s2)-n2c(C)nnc2CN=C3c2ccccc2Cl)ccc1CC(=O)Nc1cccc(/C=C/c2nc(C3CCC3)cs2)c1 [Compound D, (E)-4-[2-[4-(2-Chlorophenyl)-9-methyl-6H-thieno-[3,2-f][1,2,4]triazolo[4,3-a][1,4]diazepin-2-yl]ethyl]-N-[3-[2-(4-cyclobutyl-2-thiazolyl)ethenyl]phenyl]-2-[(2-propenylamino)-carbonyl]benzeneacetamide] | 0.02 | 65 ± 1 |  | very potent dual acting antagonists | 0.08 | 44 ± 15 |  |  |  |  |  | 
CCC(CC)(CC(=O)Nc1cccc(/C=C/c2nc(C3CCC3)cs2)c1)C(=O)O [Compound B, (E)-4-[3-[2-(4-Cyclobutyl-2-thiazolyl)ethenyl]phenylamino]2,2-diethyl-4-oxobutanoic acid, reference compound] |  |  |  |  | 0.13 |  |  |  |  | Not Active | Not Active | 0.12
